According to PubChem BioAssay (NCI):
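Cultured in 96-well plates, cells were exposed to test compound for 48 hours across five concentrations. Abbreviation: GI50, concentration required for 50% inhibition of growth. The concentration for full growth arrest is given as TGI.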

Experiments:
Experiment in all cases: NCI anticancer screen, dose series, 48 h
HOP-62 NSCLC = system: HOP-62 NSCLC
HL-60(TB) leukemia = system: HL-60(TB) leukemia
OVCAR-3 ovarian = system: OVCAR-3 ovarian
MDA-MB-435 = system: MDA-MB-435
HCT-15 colon = system: HCT-15 colon
M14 melanoma = system: M14 melanoma
BT-549 breast = system: BT-549 breast
HCC-2998 colon = system: HCC-2998 colon
SNB-19 CNS = system: SNB-19 CNS
NCI/ADR-RES ovarian = system: NCI/ADR-RES ovarian
SW-620 colon = system: SW-620 colon
CAKI-1 renal = system: CAKI-1 renal
SK-MEL-28 melanoma = system: SK-MEL-28 melanoma
SR leukemia = system: SR leukemia
PC-3 prostate = system: PC-3 prostate
A549 NSCLC = system: A549 NSCLC
HT29 colon = system: HT29 colon
SK-OV-3 ovarian = system: SK-OV-3 ovarian
SK-MEL-2 melanoma = system: SK-MEL-2 melanoma
SF-295 CNS = system: SF-295 CNS
SN12C renal = system: SN12C renal
ACHN renal = system: ACHN renal
HOP-92 NSCLC = system: HOP-92 NSCLC
MDA-MB-231 breast = system: MDA-MB-231 breast
MCF7 breast = system: MCF7 breast
K-562 leukemia = system: K-562 leukemia
SK-MEL-5 melanoma = system: SK-MEL-5 melanoma
SF-268 CNS = system: SF-268 CNS
T-47D breast = system: T-47D breast
SNB-75 CNS = system: SNB-75 CNS
UACC-257 melanoma = system: UACC-257 melanoma
LOX IMVI melanoma = system: LOX IMVI melanoma
MALME-3M melanoma = system: MALME-3M melanoma
OVCAR-8 ovarian = system: OVCAR-8 ovarian
UO-31 renal = system: UO-31 renal
COLO 205 colon = system: COLO 205 colon
OVCAR-5 ovarian = system: OVCAR-5 ovarian
RXF 393 renal = system: RXF 393 renal
KM12 colon = system: KM12 colon
HCT-116 colon = system: HCT-116 colon
HS 578T breast = system: HS 578T breast
CCRF-CEM leukemia = system: CCRF-CEM leukemia
786-0 renal = system: 786-0 renal
NCI-H226 lung = system: NCI-H226 lung
NCI-H522 lung = system: NCI-H522 lung
OVCAR-4 ovarian = system: OVCAR-4 ovarian
IGROV1 ovarian = system: IGROV1 ovarian
DU-145 prostate = system: DU-145 prostate
MOLT-4 leukemia = system: MOLT-4 leukemia
RPMI-8226 leukemia = system: RPMI-8226 leukemia
NCI-H460 lung = system: NCI-H460 lung
UACC-62 melanoma = system: UACC-62 melanoma
SF-539 CNS = system: SF-539 CNS
U251 CNS = system: U251 CNS
A498 renal = system: A498 renal

## CC1(C)N=C(N)N=C(N)N1c1ccc(OCCCCNC(=O)c2ccc(S(=O)(=O)F)cc2)c(Cl)c1
HOP-62 NSCLC
  GI50: 68.3 µM
  TGI: > 100 µM
HL-60(TB) leukemia
  GI50: 1.84 µM
  TGI: > 100 µM
OVCAR-3 ovarian
  GI50: 50.4 µM
  TGI: > 100 µM
MDA-MB-435
  GI50: 4.87 µM
  TGI: > 100 µM
HCT-15 colon
  GI50: 23.3 µM
  TGI: > 100 µM
M14 melanoma
  GI50: 8.89 µM
  TGI: > 100 µM
BT-549 breast
  GI50: > 100 µM
  TGI: > 100 µM
HCC-2998 colon
  GI50: 35 µM
  TGI: > 100 µM
SNB-19 CNS
  GI50: 13.6 µM
  TGI: > 100 µM
NCI/ADR-RES ovarian
  GI50: > 100 µM
  TGI: > 100 µM
SW-620 colon
  GI50: 3.51 µM
  TGI: > 100 µM
CAKI-1 renal
  GI50: 43.8 µM
  TGI: > 100 µM
SK-MEL-28 melanoma
  GI50: 54.1 µM
  TGI: > 100 µM
SR leukemia
  GI50: 4.95 µM
  TGI: > 100 µM
PC-3 prostate
  GI50: 0.743 µM
  TGI: > 100 µM
A549 NSCLC
  GI50: 4.17 µM
  TGI: > 100 µM
HT29 colon
  GI50: 4.19 µM
  TGI: > 100 µM
SK-OV-3 ovarian
  GI50: > 100 µM
  TGI: > 100 µM
SK-MEL-2 melanoma
  GI50: 77.2 µM
  TGI: > 100 µM
SF-295 CNS
  GI50: 51.1 µM
  TGI: > 100 µM
SN12C renal
  GI50: 4.47 µM
  TGI: > 100 µM
ACHN renal
  GI50: 41.6 µM
  TGI: > 100 µM
HOP-92 NSCLC
  GI50: > 100 µM
  TGI: > 100 µM
MDA-MB-231 breast
  GI50: 66.2 µM
  TGI: > 100 µM
MCF7 breast
  GI50: 3.9 µM
  TGI: > 100 µM
K-562 leukemia
  GI50: 0.562 µM
  TGI: > 100 µM
SK-MEL-5 melanoma
  GI50: 5.19 µM
  TGI: > 100 µM
SF-268 CNS
  GI50: 6.21 µM
  TGI: > 100 µM
T-47D breast
  GI50: > 100 µM
  TGI: > 100 µM
SNB-75 CNS
  GI50: 16.5 µM
  TGI: > 100 µM
UACC-257 melanoma
  GI50: 6.36 µM
  TGI: > 100 µM
LOX IMVI melanoma
  GI50: 1.9 µM
  TGI: > 100 µM
MALME-3M melanoma
  GI50: > 100 µM
  TGI: > 100 µM
OVCAR-8 ovarian
  GI50: 4.82 µM
  TGI: > 100 µM
UO-31 renal
  GI50: 48.8 µM
  TGI: > 100 µM
COLO 205 colon
  GI50: 68.4 µM
  TGI: > 100 µM
OVCAR-5 ovarian
  GI50: > 100 µM
  TGI: > 100 µM
RXF 393 renal
  GI50: 8.99 µM
  TGI: > 100 µM
KM12 colon
  GI50: 8.04 µM
  TGI: > 100 µM
HCT-116 colon
  GI50: 3.53 µM
  TGI: > 100 µM
HS 578T breast
  GI50: > 100 µM
  TGI: > 100 µM
CCRF-CEM leukemia
  GI50: 5.65 µM
  TGI: > 100 µM
786-0 renal
  GI50: 5.72 µM
  TGI: > 100 µM
NCI-H226 lung
  GI50: 76 µM
  TGI: > 100 µM
NCI-H522 lung
  GI50: 10.5 µM
  TGI: > 100 µM
OVCAR-4 ovarian
  GI50: 93.7 µM
  TGI: > 100 µM
IGROV1 ovarian
  GI50: 4.78 µM
  TGI: > 100 µM
DU-145 prostate
  GI50: 8.16 µM
  TGI: > 100 µM
MOLT-4 leukemia
  GI50: 21.3 µM
  TGI: > 100 µM
RPMI-8226 leukemia
  GI50: 6.39 µM
  TGI: > 100 µM
NCI-H460 lung
  GI50: 2.1 µM
  TGI: > 100 µM
UACC-62 melanoma
  GI50: 4.27 µM
  TGI: > 100 µM
SF-539 CNS
  GI50: 7.11 µM
  TGI: > 100 µM
U251 CNS
  GI50: 5.65 µM
  TGI: > 100 µM
A498 renal
  GI50: > 100 µM
  TGI: > 100 µM
